Test results as given in patent publication US20180353565A1, “PHARMACEUTICAL FORMULATIONS AND THEIR USE FOR THE TREATMENT OF RETINITIS PIGMENTOSA” (KALEYDE PHARMACEUTICALS AG, priority 2016, published 2018).
Where a SMILES comes first, the peptide text is derived from it. [ ]: non-standard residue; d: D form. αMeF = C[C@](N)(Cc1ccccc1)C(=O)O; Aib = CC(C)(N)C(=O)O

What was measured:
[1] = test system: RCS/Kyo rat (Royal College of Surgeons rat); assay: Efficacy in RCS/KYO rats by intravitreal or subcutaneous administration (retinal and ONL thickness under the microscope); assay type: in vivo; settings: for Retinal thickness % of control / Thickness of ONL % of control / Thickness of ONL (outer nuclear layer): age 49 days; for Retinal thickness: measured at age 49 days
Text: The RCS/Kyo rat (Royal College of Surgeons rat) represents the most commonly used model in the study of this eye disease. RCS rats present retinal degeneration that makes them the ideal model for the study of this disease. […] The epithelial cells of the retina in these animals are unable to ingest the […] photoreceptor cells, and those photoreceptors therefore die.
45 male and female RCS/Kyo rats, aged 14/21 days, were employed, using the tetrapeptide Ac-Arg-Aib-Arg-α(Me)Phe-NH2, formulated as reported in example 1A, at the concentration of 1.2 mg/mL for intravitreal injection, or 7.6 mg/mL for subcutaneous injection.
The treatment regimen used is set out below:
After euthanasia of the rats at the age of 49 days, the thickness of the retina in the various groups was measured under the microscope:
The thickness of the outer layer of granules (outer nuclear layer, ONL, cell body of cones and rods) was also measured.

[2] = Plasma pharmacokinetics after single subcutaneous administration (LC-MS); assay type: in vivo, Sprague-Dawley rats; settings: Dose 16.6 mg/kg s.c.
Method: (§1) 10 Male Sprague-Dawley rats were used. The rats were divided into two groups of 5 for determination of plasma pharmacokinetics and tissue distribution, by single subcutaneous administration at the dose of 16.6 mg/kg in a volume of 1 mL/kg. Blood samples were taken after 0.25, 0.5, 1, 2, 4, 6, 8 and 24 hours; subsequently, in the second group of rats, tissue samples were taken at Tmax. The kinetic equation, Cmax, Tmax, plasma half-life and AUC were determined. The concentrations were measured by LC-MS.

[3] = Tissue distribution at Tmax after single subcutaneous administration (LC-MS); assay type: in vivo, Sprague-Dawley rats; settings: at Tmax after 16.6 mg/kg s.c., rat
Method: as §1
As will be seen, the kidney is the organ with the highest values compared with the other tissues. However, in the eyes, which represent the target tissue, the peptide is present with a tissue plasma ratio of about 5.

[4] = test system: mice with oxygen-induced retinopathy; settings: cited from earlier work
[5] = group S-ivt-sd-t: intravitreal, therapeutic, single dose 4 μg at day 22
[6] = group S-sc-rd-p: subcutaneous, preventive, 1800 μg from day 14, 6 times a week for 5 weeks
[7] = group S-sc-rd-t: subcutaneous, therapeutic, 1800 μg from day 22, 6 times a week for 4 weeks
[8] = male, Sprague-Dawley, sc, rat plasma
[9] = intravitreal injection, OIR mice

Kelim ([2]; rat plasma): 0.309 ± 0.029 h⁻¹ | Tmax ([2]; male, Sprague-Dawley, rat, plasma, sc, 16.6 mg/kg): ~2 h | AUC(0-inf) [2, 8]: 39300 ± 4010 ng·h/mL | AUC(0-t) [2, 8]: 39300 ± 3990 ng·h/mL | Cmax [2, 8]: 5910 ± 1180 ng/mL | half-life [2, 8]: 2.26 ± 0.226 h | Tissue plasma ratio, eyes [3]: about 5
Structure (SMILES): CC(=O)N[C@@H](CCCNC(=N)N)C(=O)NC(C)(C)C(=O)N[C@@H](CCCNC(=N)N)C(=O)N[C@@](C)(Cc1ccccc1)C(N)=O [Ac-Arg-Aib-Arg-α(Me)Phe-NH2] (Ac-R[Aib]R[αMeF]-NH2)
Effect on retinal structure ([1]; RCS/KYO rats): restore nearly all the strongly deteriorated retinal structure | Change of retinal thickness ([1]; all the treated groups, preventive treatment to a lesser extent): considerable increase in retinal thickness | Retinal thickness % of control [1, 5]: 110 % of control | Thickness of ONL % of control [1, 5]: 134 % of control | Thickness of ONL (outer nuclear layer) [1, 5]: 12.09 μm | Retinal thickness ([1]; group S-ivt-sd-t: intravitreal, therapeutic, single dose 4 μg at day 22 after birth): 132.08 μm | Retinal thickness % of control [1, 6]: 130 % of control | Thickness of ONL % of control [1, 6]: 196 % of control | Thickness of ONL (outer nuclear layer) [1, 6]: 17.64 μm | Retinal thickness [1, 6]: 155.25 μm | Retinal thickness % of control [1, 7]: 153 % of control | Thickness of ONL % of control [1, 7]: 196 % of control | Thickness of ONL (outer nuclear layer) [1, 7]: 17.62 μm | Retinal thickness [1, 7]: 182.67 μm | Change of ONL thickness ([1]; repeated subcutaneous doses): double the thickness of the layer | Increase of the photoreceptor layer ([1]; single dose of 4 μg per eye): 34% | Effect on inflammatory markers [4, 9]: reducing the anti-inflammatory markers | Effect on retinal neovascularization [4, 9]: reducing retinal neovascularization | Effect on the blood-retinal barrier [4, 9]: repairing dysfunctions of the blood-retinal barrier | Effect on the structure of the retina (words, literature) ([4]; reported in IOVS (2015), 56(4) 2392-2407): does not modify the structure of the retina
